Test results published in patent publication US20220040150A1, “I[…] ADMI[…] FOR DMT-ASSISTED PSYCHOTHERAPY” (Universitatsspital Basel, priority 2020, published 2022).

Experiments:
healthy subjects [1] = experiment: Example 1 clinical study: 5D-ASC scale
healthy subjects [2] = experiment: Example 1 clinical study: blood pressure and heart rate; conditions: perfusion with or without bolus
[3] = Plasma levels of DMT after intravenous bolus plus continuous infusion (Gouzoulis-Mayfrank et al., 2005); assay type: in vivo; conditions: human
Procedure: Previous research already documented the rapid action of DMT and its safety (Gouzoulis-Mayfrank et al., 2005). A study included 15 healthy volunteers. DMT was given at either a low or a high dose. The low dose consisted of a bolus injection of 0.2 mg/kg (˜15 mg) over 5 minutes followed by a break of one minute, followed by a continuous infusion with 0.015 mg/kg (˜1 mg)/min over 84 minutes. The high dose consisted of a bolus injection of 0.3 mg/kg (˜23 mg) and a continuous infusion with 0.02 mg/kg (˜1.5 mg)/min. The two doses were administered on the same day with a two-hour break between the end of the first and the beginning of the second administration in a single-blind design. Subjective effects were assessed and plasma concentrations of DMT were determined during the perfusion and thereafter. Effects of both doses included vivid alterations of visual, auditory, and tactile perception. […] Most subjects tended to report their experiences during the experiment spontaneously, and they were interested in interpersonal interactions. Mood varied from anxious and tense to expansive and euphoric with mostly vivid verbal, mimic, and psychomotor expression of emotions. Ego-control and insight into the experimental nature of the experience were preserved at the low dose. […]

[4] = molecular target: T1, monoamine oxidase (MAO) A (Homo sapiens, UniProt P21397); conditions: cited from earlier work
T1 sequence (P21397 1-527): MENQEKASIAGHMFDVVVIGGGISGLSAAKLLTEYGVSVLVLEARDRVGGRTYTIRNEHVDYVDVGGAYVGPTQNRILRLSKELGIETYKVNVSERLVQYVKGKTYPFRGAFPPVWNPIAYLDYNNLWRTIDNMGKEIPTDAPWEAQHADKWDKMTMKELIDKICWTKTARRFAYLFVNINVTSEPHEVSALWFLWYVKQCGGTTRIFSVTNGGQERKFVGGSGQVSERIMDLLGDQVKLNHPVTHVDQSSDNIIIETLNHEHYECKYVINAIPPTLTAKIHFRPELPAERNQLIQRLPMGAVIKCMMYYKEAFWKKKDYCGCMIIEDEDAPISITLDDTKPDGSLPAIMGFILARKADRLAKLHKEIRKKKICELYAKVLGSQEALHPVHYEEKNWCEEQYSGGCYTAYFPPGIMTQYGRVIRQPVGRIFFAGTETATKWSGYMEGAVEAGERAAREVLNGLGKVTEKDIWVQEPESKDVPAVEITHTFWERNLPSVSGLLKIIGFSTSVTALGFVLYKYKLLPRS

5-HT1A receptor = molecular target: T2, 5-HT1A receptor (Homo sapiens, UniProt P08908); conditions: sub-hallucinogenic dose of 0.1 mg/kg DMT, twelve subjects; cited from earlier work
T2 construct: host or cells: human volunteers (in vivo)
T2 sequence (P08908 1-422): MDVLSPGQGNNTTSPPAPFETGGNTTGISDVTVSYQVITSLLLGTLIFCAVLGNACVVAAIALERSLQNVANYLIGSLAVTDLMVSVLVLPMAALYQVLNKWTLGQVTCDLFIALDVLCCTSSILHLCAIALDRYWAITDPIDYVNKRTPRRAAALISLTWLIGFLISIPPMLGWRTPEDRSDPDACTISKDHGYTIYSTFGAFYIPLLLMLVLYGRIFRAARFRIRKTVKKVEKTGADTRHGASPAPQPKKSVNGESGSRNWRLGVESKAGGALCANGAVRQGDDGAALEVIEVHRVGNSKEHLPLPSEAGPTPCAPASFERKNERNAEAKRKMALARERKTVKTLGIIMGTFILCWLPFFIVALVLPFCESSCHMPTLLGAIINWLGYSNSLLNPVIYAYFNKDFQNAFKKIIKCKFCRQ

serotonin transporter = serotonin transporter (Homo sapiens, UniProt P31645); conditions: in contrast to LSD; cited from earlier work
[5] = DMT plasma concentrations after intravenous bolus, pilot study (Timmermann et al., 2019); assay type: in vivo; conditions: human, consistent with measurements of Timmermann 2019 and Strassman 1994, may represent redistribution, read-out: approximate elimination half-life
Procedure: A more recent pilot study also assessed plasma concentrations of DMT after intravenous bolus administration of 7-20 mg of DMT in a small number of subjects (Timmermann et al., 2019). DMT blood concentrations were approximately 56 ng/mL 2 minutes after administration of 14 mg (corresponding to approximately 0.2 mg/kg) (Timmermann et al., 2019) in line with the aforementioned data by Strassman (Strassman et al., 1994). The measurements from both studies are consistent with an approximate elimination half-life of 5-10 minutes. However, this may represent rapid redistribution and metabolism and may therefore be shorter than the true elimination half-life (see above). The study only used a bolus, so it is different from the present invention. The above descriptions illustrate that there is limited information on the effects of intravenous DMT administration. However, no study has validly determined the elimination half-life of DMT and other pharmacokinetic parameters and this will be done within the current invention to have better and rational basis on dosing.

[6] = molecular target: serotonin 5-HT2A receptor (Homo sapiens, UniProt P28223); conditions: similar to LSD and psilocybin; cited from earlier work
Sequence of serotonin 5-HT2A receptor (P28223 whole entry): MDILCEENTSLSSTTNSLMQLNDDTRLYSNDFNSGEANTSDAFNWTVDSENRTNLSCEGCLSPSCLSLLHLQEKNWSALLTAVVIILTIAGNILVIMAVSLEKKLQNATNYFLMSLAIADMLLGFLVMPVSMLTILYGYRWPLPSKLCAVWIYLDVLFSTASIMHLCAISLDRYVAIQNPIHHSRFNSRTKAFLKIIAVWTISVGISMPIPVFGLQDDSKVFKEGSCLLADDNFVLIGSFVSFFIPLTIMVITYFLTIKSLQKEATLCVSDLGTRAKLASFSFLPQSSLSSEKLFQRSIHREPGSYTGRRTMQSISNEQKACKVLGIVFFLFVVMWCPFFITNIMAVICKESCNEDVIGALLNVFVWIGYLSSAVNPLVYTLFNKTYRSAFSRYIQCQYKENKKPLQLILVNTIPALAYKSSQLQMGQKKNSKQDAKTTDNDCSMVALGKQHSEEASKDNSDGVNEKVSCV

Sequence of serotonin transporter (P31645 whole entry): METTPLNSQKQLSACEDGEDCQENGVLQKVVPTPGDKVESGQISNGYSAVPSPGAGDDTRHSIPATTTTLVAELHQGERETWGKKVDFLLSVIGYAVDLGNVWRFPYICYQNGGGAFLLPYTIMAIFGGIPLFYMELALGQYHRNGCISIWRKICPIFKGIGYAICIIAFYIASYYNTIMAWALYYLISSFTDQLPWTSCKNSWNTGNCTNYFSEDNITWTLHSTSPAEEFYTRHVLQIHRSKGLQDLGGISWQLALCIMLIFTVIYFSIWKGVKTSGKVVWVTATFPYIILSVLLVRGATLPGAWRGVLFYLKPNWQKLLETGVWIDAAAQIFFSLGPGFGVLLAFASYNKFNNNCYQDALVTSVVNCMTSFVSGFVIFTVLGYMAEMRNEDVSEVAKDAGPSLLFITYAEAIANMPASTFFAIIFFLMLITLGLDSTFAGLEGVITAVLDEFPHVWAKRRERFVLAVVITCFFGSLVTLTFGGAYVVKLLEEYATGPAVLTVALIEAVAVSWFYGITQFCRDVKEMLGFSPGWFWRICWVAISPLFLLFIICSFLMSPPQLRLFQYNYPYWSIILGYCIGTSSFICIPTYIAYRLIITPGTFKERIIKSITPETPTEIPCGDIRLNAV

In the case of CN(C)CCc1c[nH]c2ccccc12 [DMT, N,N-dimethyltryptamine], the “Anxiety (5D-ASC)” value (healthy subjects [1]; bolus and perfusion) is reported as “almost absent”, the 5D-ASC scores (healthy subjects [1]; bolus and perfusion compared with perfusion alone, mean in three subjects) is reported as “more pronouncedly increased 5D-ASC scores” and the 5D-ASC ratings (healthy subjects [1]; perfusion with placebo bolus) is reported as “increased ratings of Oceanic Boundlessness and lower ratings in Anxious Ego-Dissolution and Visionary Restructuralization”. The “effect on blood pressure and heart rate” value (healthy subjects [2]) was “only moderately and transiently increased blood pressure”, the half-life ([3]; in line with subjective effects and Strassman data, read-out: true half-life (likely)) was roughly 10 min and the half-life ([3]; indicated by the very crude and possibly invalid plasma data, read-out: elimination half-life) was roughly 30 min. The “metabolism by monoamine oxidase (MAO) A” value [4] was “rapidly metabolized”, the “enhancement of DMT effects by pindolol pre-treatment” value (5-HT1A receptor) was “two to three times” and the “interaction with the serotonin transporter” value (serotonin transporter) was “interacts”. For the same compound, the half-life [5] was 5 to 10 min and the “interaction with the serotonin 5-HT2A receptor” value [6] was “interacts”.
